Data as given in ChEMBL document CHEMBL3763146 (J Med Chem, 2016).

Tests used:
Cynomolgus monkey [1] = assay: Toxicity in cynomolgus monkey assessed as postmortem parameters measured up to 9 months; assay type: organism-based, Macaca fascicularis; settings: in vivo
Cynomolgus monkey [2] = assay: Unbound clearance in cynomolgus monkey at 0.5 mg/kg, iv or 2 mg/kg, po; assay type: ADME, organism-based, Macaca fascicularis; settings: in vivo
Cynomolgus monkey [3] = assay: Dose normalized total AUC in cynomolgus monkey at 2 mg/kg, po; assay type: ADME, organism-based, Macaca fascicularis; settings: in vivo
Cynomolgus monkey [4] = assay: Dose normalized fAUC in cynomolgus monkey at 2 mg/kg, po; assay type: ADME, organism-based, Macaca fascicularis; settings: in vivo
Cytochrome P450 2C8 = Cytochrome P450 2C8 (Homo sapiens, UniProt P10632); assay: Inhibition of CYP2C8 in human liver microsomes; assay type: ADME
Sequence of Cytochrome P450 2C8 (P10632 whole entry): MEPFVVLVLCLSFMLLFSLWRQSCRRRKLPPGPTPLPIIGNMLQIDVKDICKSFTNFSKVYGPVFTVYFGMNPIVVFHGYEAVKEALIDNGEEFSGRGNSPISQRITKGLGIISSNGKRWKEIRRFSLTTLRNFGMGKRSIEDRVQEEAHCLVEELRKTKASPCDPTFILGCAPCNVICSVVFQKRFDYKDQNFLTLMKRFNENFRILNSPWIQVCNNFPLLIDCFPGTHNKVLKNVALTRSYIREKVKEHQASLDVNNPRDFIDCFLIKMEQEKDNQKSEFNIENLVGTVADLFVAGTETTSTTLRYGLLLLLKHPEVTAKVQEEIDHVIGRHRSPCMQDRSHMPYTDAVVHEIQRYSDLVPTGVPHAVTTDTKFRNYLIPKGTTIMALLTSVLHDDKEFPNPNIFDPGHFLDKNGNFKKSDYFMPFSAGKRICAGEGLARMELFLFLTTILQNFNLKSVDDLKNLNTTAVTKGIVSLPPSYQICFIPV

[5] = target: T1, Beta-3 adrenergic receptor (Homo sapiens, UniProt P13945); assay: Agonist activity at human adrenergic beta3 receptor expressed in CHO cells assessed as accumulation of cAMP after 30 mins by TR-FRET assay in presence of 40% serum relative to (R)-(-)-isoproterenol; assay type: functional, cell-based
T1 sequence (P13945 whole entry, looked up): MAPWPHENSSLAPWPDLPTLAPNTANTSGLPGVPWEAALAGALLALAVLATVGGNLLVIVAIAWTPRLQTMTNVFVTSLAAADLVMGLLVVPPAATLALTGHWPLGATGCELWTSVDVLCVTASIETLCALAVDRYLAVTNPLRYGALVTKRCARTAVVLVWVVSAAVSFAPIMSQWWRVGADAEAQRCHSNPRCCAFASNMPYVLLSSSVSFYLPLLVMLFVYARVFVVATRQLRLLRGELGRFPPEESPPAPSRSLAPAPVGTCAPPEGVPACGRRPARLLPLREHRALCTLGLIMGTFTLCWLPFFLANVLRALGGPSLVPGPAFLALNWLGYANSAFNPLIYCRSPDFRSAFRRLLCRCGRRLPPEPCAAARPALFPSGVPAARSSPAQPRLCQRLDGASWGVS

[6] = target: Beta-3 adrenergic receptor (Rattus norvegicus) (UniProt P26255); assay: Agonist activity at rat beta3 adrenergic receptor expressed in CHO cells assessed as accumulation of cAMP after 30 mins by TR-FRET assay in presence of 40% serum relative to (R)-(-)-isoproterenol; assay type: functional, cell-based
Sequence of Beta-3 adrenergic receptor (Rattus norvegicus) (P26255 whole entry): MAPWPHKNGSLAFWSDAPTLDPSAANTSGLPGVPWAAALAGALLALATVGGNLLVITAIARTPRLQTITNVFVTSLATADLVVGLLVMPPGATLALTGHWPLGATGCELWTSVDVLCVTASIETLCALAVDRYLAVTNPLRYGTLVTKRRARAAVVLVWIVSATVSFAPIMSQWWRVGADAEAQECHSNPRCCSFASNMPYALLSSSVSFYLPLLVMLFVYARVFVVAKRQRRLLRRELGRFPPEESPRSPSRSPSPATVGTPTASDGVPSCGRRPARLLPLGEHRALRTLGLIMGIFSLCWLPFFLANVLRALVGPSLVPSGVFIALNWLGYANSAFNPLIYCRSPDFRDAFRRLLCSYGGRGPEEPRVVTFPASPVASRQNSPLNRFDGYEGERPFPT

[7] = Induction of phospholidosis in human HepG2 cells incubated overnight by […] in presence of fluorescent labeled phospholipid probe NBD-PE; assay type: cell-based; settings: read-out: A50
[8] = Distribution coefficient, logD of the compound at pH 7.4; assay type: physicochemical; settings: octanol/water
[9] = target: Sodium channel protein type 2 subunit alpha (Homo sapiens, UniProt Q99250); assay: Inhibition of human Nav1.2 channel expressed in Xenopus oocytes by two-intracellular microelectrode voltage clamp method; assay type: cell-based
Sequence of Sodium channel protein type 2 subunit alpha (Q99250 whole entry, looked up): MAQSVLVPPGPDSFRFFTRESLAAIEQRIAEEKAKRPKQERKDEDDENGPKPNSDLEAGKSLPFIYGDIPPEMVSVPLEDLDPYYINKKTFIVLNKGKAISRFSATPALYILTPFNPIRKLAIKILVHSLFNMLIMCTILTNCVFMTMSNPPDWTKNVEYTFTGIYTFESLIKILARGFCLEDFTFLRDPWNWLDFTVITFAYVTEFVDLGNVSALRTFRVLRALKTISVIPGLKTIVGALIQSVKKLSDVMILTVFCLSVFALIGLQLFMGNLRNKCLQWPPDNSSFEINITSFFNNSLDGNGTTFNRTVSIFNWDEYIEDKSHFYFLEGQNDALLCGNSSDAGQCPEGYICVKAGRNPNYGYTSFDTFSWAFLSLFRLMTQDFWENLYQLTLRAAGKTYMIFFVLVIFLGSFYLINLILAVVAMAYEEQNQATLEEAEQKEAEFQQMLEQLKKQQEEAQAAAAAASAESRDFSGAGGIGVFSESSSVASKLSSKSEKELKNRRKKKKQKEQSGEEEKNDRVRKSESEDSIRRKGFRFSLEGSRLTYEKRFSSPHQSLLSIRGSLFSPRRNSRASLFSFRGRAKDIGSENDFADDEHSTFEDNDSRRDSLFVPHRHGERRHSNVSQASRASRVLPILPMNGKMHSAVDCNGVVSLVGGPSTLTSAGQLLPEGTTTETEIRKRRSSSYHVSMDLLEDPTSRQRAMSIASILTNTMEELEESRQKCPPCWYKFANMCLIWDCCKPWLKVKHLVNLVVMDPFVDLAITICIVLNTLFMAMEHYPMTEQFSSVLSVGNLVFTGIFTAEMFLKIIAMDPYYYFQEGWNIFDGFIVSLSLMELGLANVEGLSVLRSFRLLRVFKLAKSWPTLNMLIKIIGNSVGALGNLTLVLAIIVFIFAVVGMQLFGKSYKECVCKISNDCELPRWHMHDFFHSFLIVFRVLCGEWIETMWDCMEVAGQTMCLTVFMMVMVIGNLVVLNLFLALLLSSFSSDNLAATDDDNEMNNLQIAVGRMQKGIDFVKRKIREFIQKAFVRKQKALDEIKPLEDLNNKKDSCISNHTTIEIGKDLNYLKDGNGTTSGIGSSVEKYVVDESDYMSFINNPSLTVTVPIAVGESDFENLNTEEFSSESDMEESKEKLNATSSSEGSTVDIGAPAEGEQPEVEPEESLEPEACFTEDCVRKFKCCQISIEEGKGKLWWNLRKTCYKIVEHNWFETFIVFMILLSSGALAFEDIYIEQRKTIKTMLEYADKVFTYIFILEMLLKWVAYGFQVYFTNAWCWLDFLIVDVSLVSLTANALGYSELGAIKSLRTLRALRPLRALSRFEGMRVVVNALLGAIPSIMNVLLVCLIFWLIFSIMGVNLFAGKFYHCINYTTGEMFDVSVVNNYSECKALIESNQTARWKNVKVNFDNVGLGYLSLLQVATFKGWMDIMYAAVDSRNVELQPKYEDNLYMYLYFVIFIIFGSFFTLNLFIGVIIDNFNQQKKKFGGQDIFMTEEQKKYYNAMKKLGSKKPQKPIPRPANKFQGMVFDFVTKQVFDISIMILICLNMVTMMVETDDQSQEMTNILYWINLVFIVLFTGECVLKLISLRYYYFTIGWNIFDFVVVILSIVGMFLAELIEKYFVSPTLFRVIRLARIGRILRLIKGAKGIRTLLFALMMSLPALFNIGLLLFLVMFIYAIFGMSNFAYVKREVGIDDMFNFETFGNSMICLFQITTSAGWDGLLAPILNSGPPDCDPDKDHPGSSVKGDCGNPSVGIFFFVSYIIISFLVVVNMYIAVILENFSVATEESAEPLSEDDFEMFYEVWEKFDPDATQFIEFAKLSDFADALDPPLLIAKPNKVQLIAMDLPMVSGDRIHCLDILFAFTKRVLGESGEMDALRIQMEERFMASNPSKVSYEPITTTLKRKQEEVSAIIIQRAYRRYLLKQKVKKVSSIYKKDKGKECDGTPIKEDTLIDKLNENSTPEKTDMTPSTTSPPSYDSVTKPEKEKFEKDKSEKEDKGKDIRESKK

Cytochrome P450 2C9 = Cytochrome P450 2C9 (Homo sapiens, UniProt P11712); assay: Inhibition of CYP2C9 in human liver microsomes assessed as diclofenac alpha'-hydroxylation; assay type: ADME
Sequence of Cytochrome P450 2C9 (P11712 whole entry): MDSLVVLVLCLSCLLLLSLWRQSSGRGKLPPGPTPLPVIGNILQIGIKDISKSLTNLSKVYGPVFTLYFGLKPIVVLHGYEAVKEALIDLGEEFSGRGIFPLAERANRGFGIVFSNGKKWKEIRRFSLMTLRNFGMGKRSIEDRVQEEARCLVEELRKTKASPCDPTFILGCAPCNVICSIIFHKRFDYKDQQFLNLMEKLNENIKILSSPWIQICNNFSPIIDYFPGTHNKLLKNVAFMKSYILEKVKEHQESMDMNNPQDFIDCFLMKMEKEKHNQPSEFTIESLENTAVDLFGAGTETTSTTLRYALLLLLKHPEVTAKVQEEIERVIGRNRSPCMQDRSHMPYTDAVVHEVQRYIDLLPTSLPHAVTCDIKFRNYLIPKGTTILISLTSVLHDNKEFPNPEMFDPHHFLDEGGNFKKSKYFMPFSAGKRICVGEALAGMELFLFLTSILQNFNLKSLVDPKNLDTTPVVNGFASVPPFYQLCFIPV

[10] = target: T1, Beta-3 adrenergic receptor; assay: Agonist activity at human beta3 adrenergic receptor expressed in CHO cells assessed as accumulation of cAMP after 30 mins by TR-FRET assay relative to (R)-(-)-isoproterenol; assay type: functional, cell-based
[11] = Plasma clearance in rat at 1 mg/kg, iv or 2 mg/kg, po; assay type: ADME, organism-based
[12] = Plasma clearance in dog at 0.5 mg/kg, iv or 2 mg/kg, po; assay type: ADME, organism-based, Canis lupus familiaris
[13] = Stability in human plasma assessed as parent compound remaining at 24 hrs by LC-MS analysis; assay type: ADME, cell-free; settings: read-out: Stability
Rattus norvegicus [14] = assay: Unbound clearance in rat at 1 mg/kg, iv or 2 mg/kg, po; assay type: ADME, organism-based; settings: in vivo
Rhesus monkey [15] = assay: Unbound clearance in rhesus monkey at 0.5 mg/kg, iv or 2 mg/kg, po; assay type: ADME, organism-based, Macaca mulatta; settings: in vivo
[16] = Half life in rat at 1 mg/kg, iv or 2 mg/kg, po; assay type: ADME, organism-based; settings: in vivo
[17] = Half life in dog at 0.5 mg/kg, iv or 2 mg/kg, po; assay type: ADME, organism-based, Canis lupus familiaris; settings: in vivo
Rattus norvegicus [18] = assay: Dose normalized total AUC in rat at 2 mg/kg, po; assay type: ADME, organism-based; settings: in vivo
Canis familiaris [19] = assay: Dose normalized total AUC in dog at 2 mg/kg, po; assay type: ADME, organism-based, Canis lupus familiaris; settings: in vivo
Rhesus monkey [20] = assay: Dose normalized total AUC in rhesus monkey at 2 mg/kg, po; assay type: ADME, organism-based, Macaca mulatta; settings: in vivo
Rattus norvegicus [21] = assay: Dose normalized fAUC in rat at 2 mg/kg, po; assay type: ADME, organism-based; settings: in vivo
Canis familiaris [22] = assay: Dose normalized fAUC in dog at 2 mg/kg, po; assay type: ADME, organism-based, Canis lupus familiaris; settings: in vivo
[23] = Oral bioavailability in rat at 2 mg/kg; assay type: ADME, organism-based; settings: in vivo
[24] = Oral bioavailability in dog at 2 mg/kg; assay type: ADME, organism-based, Canis lupus familiaris; settings: in vivo
[25] = Intrinsic clearance in rat liver microsomes; assay type: ADME; settings: read-out: CLH
[26] = Intrinsic clearance in human liver microsomes; assay type: ADME; settings: read-out: CLH
[27] = Intrinsic clearance in rhesus monkey liver microsomes; assay type: ADME, Macaca mulatta; settings: read-out: CLH
[28] = Stability in rat plasma assessed as parent compound remaining at 24 hrs by LC-MS analysis; assay type: ADME, cell-free; settings: read-out: Stability
[29] = target: T2, Beta-3 adrenergic receptor (Rattus norvegicus, UniProt P26255); assay: Agonist activity at rat beta3 adrenergic receptor expressed in CHO cells assessed as accumulation of cAMP after 30 mins by TR-FRET assay; assay type: functional, cell-based
T2 sequence (P26255 whole entry): as the sequence (P26255 whole entry) above

[30] = target: Beta-3 adrenergic receptor (Rattus norvegicus) (UniProt P26255); assay: Agonist activity at rat beta3 adrenergic receptor expressed in CHO cells assessed as accumulation of cAMP after 30 mins by TR-FRET assay relative to (R)-(-)-isoproterenol; assay type: functional, cell-based
[31] = target: T2, Beta-3 adrenergic receptor; assay: Agonist activity at rat beta3 adrenergic receptor expressed in CHO cells assessed as accumulation of cAMP after 30 mins by TR-FRET assay in presence of 40% serum; assay type: functional, cell-based
Rattus norvegicus [32] = assay: Increase in circulating glycerol level in iv infused Sprague-Dawley rat after 45 mins by liquid chromatography-tandem mass spectrometric analysis; assay type: functional
Rattus norvegicus [33] = assay: Increase in circulating free fatty acid level in iv infused Sprague-Dawley rat after 45 mins by liquid chromatography-tandem mass spectrometric analysis; assay type: functional
[34] = Drug recovery in bile duct cannulated rat bile at 10 mg/kg, po measured over 48 hrs; assay type: ADME, organism-based; settings: read-out: Drug recovery
[35] = Drug recovery in bile duct cannulated rat at 10 mg/kg, po measured over 48 hrs; assay type: ADME, organism-based; settings: in vivo, read-out: Drug recovery
Cytochrome P450 3A4 = Cytochrome P450 3A4 (Homo sapiens, UniProt P08684); assay: Time-dependent inhibition of CYP3A4 in human liver microsomes up to 50 uM; assay type: ADME
Sequence of Cytochrome P450 3A4 (P08684 whole entry): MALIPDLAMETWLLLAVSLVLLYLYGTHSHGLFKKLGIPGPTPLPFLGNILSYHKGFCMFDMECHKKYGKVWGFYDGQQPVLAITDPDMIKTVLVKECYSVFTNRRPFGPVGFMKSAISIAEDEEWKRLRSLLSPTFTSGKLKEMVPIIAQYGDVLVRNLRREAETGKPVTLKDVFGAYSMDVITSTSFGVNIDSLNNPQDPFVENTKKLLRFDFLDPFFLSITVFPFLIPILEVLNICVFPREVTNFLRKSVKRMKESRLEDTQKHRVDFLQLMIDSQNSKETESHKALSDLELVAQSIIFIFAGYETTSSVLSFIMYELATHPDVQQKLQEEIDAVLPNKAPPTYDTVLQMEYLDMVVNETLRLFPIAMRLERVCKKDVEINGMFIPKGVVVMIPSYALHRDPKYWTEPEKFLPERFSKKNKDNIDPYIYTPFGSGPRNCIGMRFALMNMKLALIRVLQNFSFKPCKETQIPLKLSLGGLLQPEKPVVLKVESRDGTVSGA

Hepatocyte = assay: Increase in CYP3A4 mRNA expression in human hepatocytes up to 10 uM; assay type: ADME, cell-based
[36] = Solubility of the compound in buffer at pH <= […]; assay type: physicochemical
[37] = Chemical stability of the compound under forced degradation condition; assay type: physicochemical

O=C(Nc1ccc(C[C@@H]2CC[C@H]([C@H](O)c3ccccc3)N2)cc1)[C@@H]1CCc2nccc(=O)n21 [VIBEGRON]
Activity (Cynomolgus monkey [1]): Non-toxic | CL free (Cynomolgus monkey [2]): 34 mL/min/kg | AUC/dose (Cynomolgus monkey [3]): 870 nM·h/mg/kg | fAUC/dose (Cynomolgus monkey [4]): 500 nM·h/mg/kg | IC50 (Cytochrome P450 2C8): > 100 µM | max activation [5]: 101% | max activation [6]: 89% | AC50 [7]: > 70 µM | logD [8]: 0.9 | IC50 [9]: > 30 µM | IC50 (Cytochrome P450 2C9): > 100 µM | max activation [10]: 84% | clearance [11]: 14 mL/min/kg | clearance [12]: 15 mL/min/kg | remaining at 24 h [13]: 100% | CL free (Rattus norvegicus [14]): 67 mL/min/kg | CL free (Rhesus monkey [15]): 33 mL/min/kg | half-life [16]: 7 h | half-life [17]: 13 h | AUC/dose (Rattus norvegicus [18]): 540 nM·h/mg/kg | AUC/dose (Canis familiaris [19]): 1200 nM·h/mg/kg | AUC/dose (Rhesus monkey [20]): 540 nM·h/mg/kg | fAUC/dose (Rattus norvegicus [21]): 113 nM·h/mg/kg | fAUC/dose (Canis familiaris [22]): 490 nM·h/mg/kg | bioavailability [23]: 20% | bioavailability [24]: 44% | CLint scaled [25]: 20 mL/min/kg | CLint scaled [26]: < 10 mL/min/kg | CLint scaled [27]: 18 mL/min/kg | remaining at 24 h [28]: 100% | EC50 [29]: 0.086 µM | max activation [30]: 83% | EC50 [31]: 0.122 µM | Activity (Rattus norvegicus [32]): Dose-dependent effect | minimal effective dose (Rattus norvegicus [32]; 0.75 h, read-out: MED): 0.3 mg/kg | Activity (Rattus norvegicus [33]): Dose-dependent effect | minimal effective dose (Rattus norvegicus [33]; 0.75 h, read-out: MED): 0.3 mg/kg | dose excreted at 48 h [34]: 36% | dose excreted at 48 h [35]: 87% | TDI (Cytochrome P450 3A4): Not Active | Activity (Hepatocyte): Not Active | solubility [36]: > 4000 µg/mL | Stability [37]: Stable
